The results in this text go back to patent publication US20230167127A1, “COMPOUNDS AND THEIR USE IN THE TREATMENT OF BACTERIAL INFECTION” (Hoffmann-La Roche Inc., priority 2020, published 2023).

The test system of the experiment is Escherichia coli ATCC 25922. The experiment in a line: 50% growth inhibitory concentration (IC50) determination, Iso-Sensitest broth dilution. Type of experiment: cell-based. The following applies: Escherichia coli, ATCC25922, 16 h, strain Escherichia coli ATCC 25922; 10-point broth dilution, optical density at 600 nm over 16 h; read-out: Escherichia coli growth inhibition IC50. The method, boiled down:
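Growth was tracked as optical density at 600 nm every 20 minutes for 16 h at 35±2° C. Compounds from DMSO stocks were serially diluted twofold over 10 points (e.g. 50–0.097 μM final) in Iso-Sensitest broth. Inhibition computed in log-phase growth to give IC50.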
For orientation: Broth dilution looks for growth in wells or tubes with falling amounts of substance.
For `Cc1ncc(F)c2c1CC(CCN1CC3(C1)CN(c1cnc4c(n1)NC(=O)CO4)C(=O)O3)C2` (stereo not shown) [Example 326, 6-[2-[2-(4-fluoro-1-methyl-6,7-dihydro-5H-cyclopenta[c]pyridin-6-yl)ethyl]-6-oxo-5-oxa-2,7-diazaspiro[3.4]octan-7-yl]-4H-pyrazino[2,3-b][1,4]oxazin-3-one], the IC50 (in general, the concentration at which inhibition is half-maximal) is 138 nM.

In the case of `NC(=O)COc1cc(F)c2c(c1)CC(CNCC[C@@H]1CN(c3cnc4c(n3)NC(=O)CO4)C(=O)O1)C2` (single isomer, unassigned; isomer a) [Example 381], the IC50 is 105 nM. On to `Cc1ncc(F)c2c1CC(CCNCC1CN(c3cnc4c(n3)NC(=O)CO4)C(=O)O1)C2` (stereo not shown) [Example 265, 6-[5-[[2-(4-Fluoro-1-methyl-6,7-dihydro-5H-cyclopenta[c]pyridin-6-yl)ethylamino]methyl]-2-oxo-1,3-oxazolidin-3-yl]-4H-pyrazino[2,3-b][1,4]oxazin-3-one; formic acid], for which the IC50 was less than 97.7 nM. `Cc1ncc(F)c2c1CC(CNC[C@@H](O)[C@H]1CN(c3cnc4c(n3)NC(=O)CO4)C(=O)O1)C2` (stereo partly drawn) [Example 360, 6-[(5R)-5-[(1R)-2-[(4-Fluoro-1-methyl-6,7-dihydro-5H-cyclopenta[c]pyridin-6-yl)methylamino]-1-hydroxyethyl]-2-oxo-1,3-oxazolidin-3-yl]-4H-pyrazino[2,3-b][1,4]oxazin-3-one; formic acid]: the IC50 was 319 nM. With `O=C1COc2ncc(N3CC(CCNCC4Cc5cc(OCCN6CCOC6=O)cc(F)c5C4)OC3=O)nc2N1` (stereo not shown) [Example 304, 6-[5-[2-[[4-fluoro-6-[2-(2-oxo-1,3-oxazolidin-3-yl)ethoxy]-2,3-dihydro-1H-inden-2-yl]methylamino]ethyl]-2-oxo-1,3-oxazolidin-3-yl]-4H-pyrazino[2,3-b][1,4]oxazin-3-one; formic acid] the figure was 446 nM; with `Cc1ncc(F)c2c1CC(CN1CCC3(CC1)CN(c1cnc4c(n1)NC(=O)CO4)C(=O)O3)C2` (stereo not shown) [Example 258, 6-[8-[(4-Fluoro-1-methyl-6,7-dihydro-5H-cyclopenta[c]pyridin-6-yl)methyl]-2-oxo-1-oxa-3,8-diazaspiro[4.5]decan-3-yl]-4H-pyrazino[2,3-b][1,4]oxazin-3-one], 221 nM; with `Cc1nc(OCC2(N)CC2)cc2c1CC(CNCCC1CN(c3ccc4c(n3)NC(=O)CO4)C(=O)O1)C2` (stereo not shown) [Example 175, 6-[5-[2-[[3-[(1-aminocyclopropyl)methoxy]-1-methyl-6,7-dihydro-5H-cyclopenta[c]pyridin-6-yl]methylamino]ethyl]-2-oxo-1,3-oxazolidin-3-yl]-4H-pyrido[3,2-b][1,4]oxazin-3-one], 193 nM. As for `CNC(=O)COc1cc(F)c2c(c1)CC(CNCCC1CN(c3cnc4c(n3)NC(=O)CO4)C(=O)O1)C2` (stereo not shown) [Example 310, 2-[[7-fluoro-2-[[2-[2-oxo-3-(3-oxo-4H-pyrazino[2,3-b][1,4]oxazin-6-yl)-1,3-oxazolidin-5-yl]ethylamino]methyl]-2,3-dihydro-1H-inden-5-yl]oxy]-N-methylacetamide; formic acid], the IC50 amounted to 180 nM. As for `CNC(=O)COc1cc(C#N)c2c(c1)CC(CNCCC1CN(c3ccc4c(n3)NC(=O)CO4)C(=O)O1)C2` (stereo not shown) [Example 107, 2-[[7-cyano-2-[[2-[2-oxo-3-(3-oxo-4H-pyrido[3,2-b][1,4]oxazin-6-yl)-1,3-oxazolidin-5-yl]ethylamino]methyl]-2,3-dihydro-1H-inden-5-yl]oxy]-N-methylacetamide], the figure is 235 nM; as for `Cc1ncc(F)c2c1CC(CNCCc1nn(-c3ccc4c(c3)NC(=O)CO4)c(=O)o1)C2` (stereo not shown) [Example 67, 6-[5-[2-[(4-fluoro-1-methyl-6,7-dihydro-5H-cyclopenta[c]pyridin-6-yl)methylamino]ethyl]-2-oxo-1,3,4-oxadiazol-3-yl]-4H-1,4-benzoxazin-3-one], 249 nM; as for `Cc1ncc(C#N)c2c1CC(CNCC[C@H]1CN(c3cnc4c(n3)NC(=O)CO4)C(=O)O1)C2` (stereo partly drawn) [Example 364, 1-methyl-6-[[2-[(5S)-2-oxo-3-(3-oxo-4H-pyrazino[2,3-b][1,4]oxazin-6-yl)-1,3-oxazolidin-5-yl]ethylamino]methyl]-6,7-dihydro-5H-cyclopenta[c]pyridine-4-carbonitrile], less than 97.7 nM. Regarding `N#Cc1cccc2c1CC(CN[C@H]1C[C@H](C3CN(c4ccc5c(n4)NC(=O)CO5)C(=O)O3)C1)C2` (stereo partly drawn) [Example 97, 2-[[[trans-3-[2-oxo-3-(3-oxo-4H-pyrido[3,2-b][1,4]oxazin-6-yl)-1,3-oxazolidin-5-yl]cyclobutyl]amino]methyl]-2,3-dihydro-1H-indene-4-carbonitrile], the IC50 came out at 185 nM.

For the compound `O=C1COc2ccc(N3CC(CCNCC4Cc5ccnc(Cl)c5C4)OC3=O)nc2N1` (stereo not shown) [Example 86, 6-[5-[2-[(1-chloro-6,7-dihydro-5H-cyclopenta[c]pyridin-6-yl)methylamino]ethyl]-2-oxo-1,3-oxazolidin-3-yl]-4H-pyrido[3,2-b][1,4]oxazin-3-one], the IC50 is 134 nM. With `N#Cc1cccc2c1CC(NCCCC1CN(c3cnc4c(n3)NC(=O)CO4)C(=O)O1)C2` (stereo not shown) [Example 80, 2-[3-[2-oxo-3-(3-oxo-4H-pyrazino[2,3-b][1,4]oxazin-6-yl)-1,3-oxazolidin-5-yl]propylamino]-2,3-dihydro-1H-indene-4-carbonitrile], the IC50 is less than 97.7 nM.

On to `CC(C)(CC1CN(c2ccc3c(n2)NC(=O)CO3)C(=O)O1)NCC1Cc2cccc(C#N)c2C1` (stereo not shown) [Example 29, 2-[[[2-methyl-1-[2-oxo-3-(3-oxo-4H-pyrido[3,2-b][1,4]oxazin-6-yl)-1,3-oxazolidin-5-yl]propan-2-yl]amino]methyl]-2,3-dihydro-1H-indene-4-carbonitrile], for which the IC50 amounted to 945 nM. With `CNC(=O)COc1cc(F)c2c(c1F)CC(CNCCC1CN(c3cnc4c(n3)NC(=O)CO4)C(=O)O1)C2` (stereo not shown) [Example 393, 2-[[4,7-difluoro-2-[[2-[2-oxo-3-(3-oxo-4H-pyrazino[2,3-b][1,4]oxazin-6-yl)-1,3-oxazolidin-5-yl]ethylamino]methyl]-2,3-dihydro-1H-inden-5-yl]oxy]-N-methylacetamide] the figure was less than 97.7 nM; with `C[C@@H](N)COc1cc(F)c2c(c1)CC(CN1CCC3(CC1)CN(c1cnc4c(n1)NC(=O)CO4)C(=O)O3)C2` (stereo partly drawn) [Example 357, 6-[8-[[6-[(2R)-2-aminopropoxy]-4-fluoro-2,3-dihydro-1H-inden-2-yl]methyl]-2-oxo-1-oxa-3,8-diazaspiro[4.5]decan-3-yl]-4H-pyrazino[2,3-b][1,4]oxazin-3-one; formic acid], less than 97.7 nM. Turning to `O=C1COc2ccc(N3CC(CCCNC4Cc5cccc(Cl)c5C4)OC3=O)nc2N1` (stereo not shown) [Example 4, 6-[5-[3-[(4-chloro-2,3-dihydro-1H-inden-2-yl)amino]propyl]-2-oxo-1,3-oxazolidin-3-yl]-4H-pyrido[3,2-b][1,4]oxazin-3-one], the IC50 was less than 97.7 nM. As for `NCCOc1ccc2c(c1Cl)CC(CNCCC1CN(c3ccc4c(n3)NC(=O)CO4)C(=O)O1)C2` (stereo not shown) [Example 116, 6-[5-[2-[[5-(2-Aminoethoxy)-4-chloro-2,3-dihydro-1H-inden-2-yl]methylamino]ethyl]-2-oxo-1,3-oxazolidin-3-yl]-4H-pyrido[3,2-b][1,4]oxazin-3-one], the IC50 was less than 97.7 nM. `C[C@H](N)COc1cc(F)c2c(c1)CC(CN1CCC3(CC1)CN(c1cnc4c(n1)NC(=O)CO4)C(=O)O3)C2` (stereo partly drawn) [Example 356, 6-[8-[[6-[(2S)-2-aminopropoxy]-4-fluoro-2,3-dihydro-1H-inden-2-yl]methyl]-2-oxo-1-oxa-3,8-diazaspiro[4.5]decan-3-yl]-4H-pyrazino[2,3-b][1,4]oxazin-3-one; formic acid]: the IC50 was less than 97.7 nM. As for `CNC(=O)COc1ccc2c(c1F)CC(CN1CCC3(CC1)CN(c1cnc4c(n1)NC(=O)CO4)C(=O)O3)C2` (stereo not shown) [Example 336, 2-[[4-fluoro-2-[[2-oxo-3-(3-oxo-4H-pyrazino[2,3-b][1,4]oxazin-6-yl)-1-oxa-3,8-diazaspiro[4.5]decan-8-yl]methyl]-2,3-dihydro-1H-inden-5-yl]oxy]-N-methylacetamide], the figure is less than 97.7 nM; as for `N#Cc1c(OCC2CCN2)ccc2c1CC(CNCCC1CN(c3ccc4c(n3)NC(=O)CO4)C(=O)O1)C2` (stereo not shown) [Example 137, 5-(azetidin-2-ylmethoxy)-2-[[2-[2-oxo-3-(3-oxo-4H-pyrido[3,2-b][1,4]oxazin-6-yl)-1,3-oxazolidin-5-yl]ethylamino]methyl]-2,3-dihydro-1H-indene-4-carbonitrile; formic acid], 801 nM. As for `Cc1nc(C)c2c(c1F)CC(CNCCC1CN(c3cnc4c(n3)NC(=O)CO4)C(=O)O1)C2` (stereo not shown) [Example 352, 6-[5-[2-[(4-fluoro-1,3-dimethyl-6,7-dihydro-5H-cyclopenta[c]pyridin-6-yl)methylamino]ethyl]-2-oxo-1,3-oxazolidin-3-yl]-4H-pyrazino[2,3-b][1,4]oxazin-3-one; formic acid], the figure is less than 97.7 nM.

As for `N[C@H]1c2cccc(Cl)c2C[C@@H]1CNCC[C@H]1CN(c2cnc3c(n2)NC(=O)CO3)C(=O)O1` [Example 401, 6-[(5S)-5-[2-[[(1R,2R)-1-amino-4-chloro-2,3-dihydro-1H-inden-2-yl]methylamino]ethyl]-2-oxo-1,3-oxazolidin-3-yl]-4H-pyrazino[2,3-b][1,4]oxazin-3-one], the IC50 is less than 97.7 nM. In the case of `O=C1COc2ncc(N3CC(CCNCC4Cc5cc(OCCn6ccnn6)cc(F)c5C4)OC3=O)nc2N1` (stereo not shown) [Example 344, 6-[5-[2-[[4-fluoro-6-[2-(triazol-1-yl)ethoxy]-2,3-dihydro-1H-inden-2-yl]methylamino]ethyl]-2-oxo-1,3-oxazolidin-3-yl]-4H-pyrazino[2,3-b][1,4]oxazin-3-one; formic acid], the half-maximal inhibitory concentration (IC50) worked out at 202 nM.
